Calls of active or inactive are those of the source.
Assays:
[1] = biological target: Heat shock protein HSP 90-alpha (Homo sapiens, UniProt P07900); test: Luminescence-based dose response biochemical high throughput screening assay for inhibitors of the Heat Shock Protein 90 (HSP90). [Related pubchem assays: 1831 (Summary AID.), 1846 (Confirmation screen.), 1789 (Primary screen.)]
[2] = biological target: T1, Low molecular weight phosphotyrosine protein phosphatase (Homo sapiens, UniProt P24666); test: inhibition of human LMPTP enzyme activity – biochemical, absorbance, pNPP substrate, LMPTP-A isoform, set 2, orthogonal assay, dose response (AID 743308); format: functional
T1 sequence (P24666 whole entry): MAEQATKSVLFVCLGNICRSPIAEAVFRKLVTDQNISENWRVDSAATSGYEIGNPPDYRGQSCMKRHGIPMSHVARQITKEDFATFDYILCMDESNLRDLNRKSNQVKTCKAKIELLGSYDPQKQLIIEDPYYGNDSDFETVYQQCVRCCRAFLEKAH

[3] = biological target: T1, Low molecular weight phosphotyrosine protein phosphatase; test: inhibition of LMPTP-A enzymatic activity – biochemical, OMFP substrate, fluorescence intensity, set 2, dose response (AID 743307); format: functional
[4] = growth inhibition of PfATP4-mutant resistant parasites – NITD609-resistant line, SYBR Green, dry powder, dose response (AID 1159571); format: functional, cell-based;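 further: parasites synchronized at ring stage by sorbitol before testing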
[5] = P. falciparum Dd2 growth inhibitors, dose response, SYBR Green, cherry-picked samples (AID 1159567); format: functional, cell-based
[6] = growth inhibition of yeast DHODH-expressing 3D7 parasites – SYBR Green, dry powder samples, dose response (AID 1159570); format: functional, cell-based;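 further: parasite growth measured after 72 hours of compound exposure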
[7] = Dd2 malaria parasite growth inhibition potency – SYBR Green, dry powder samples, dose response (AID 1159566); format: functional, cell-based;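 further: potency for growth inhibition with lower SYBR green DNA signal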
[8] = biological target: NAD-dependent protein deacylase sirtuin-5, mitochondrial (Homo sapiens, UniProt Q9NXA8); test: sirtuin-5 deacylation blockers, concentration series – biochemical, fluorescence imaging, cherry-pick, set 5, dose response (AID 720591);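 further: desuccinylation of succinyl peptide AMC substrate read as fluorescence after trypsin release; potency of inhibitors that lower fluorescence and may act on trypsin instead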
[9] = A2780 cell killing – plate reader, dry powder samples, cytotoxicity control, dose response (AID 743046); format: functional, cell-based
[10] = OVCAR-3 cell viability loss – plate reader, dry powder samples, PAX8 inhibitor project, dose response (AID 743044); format: functional, cell-based
[11] = COV362 cell viability loss – plate reader, dry powder, SA12, cytotoxicity control for PAX8 inhibitor project, dose response (AID 743144); format: functional, cell-based
[12] = COV434 cell viability loss – plate reader, dry powder, SA7, cytotoxicity control for PAX8 inhibitor project, dose response (AID 743145); format: functional, cell-based
[13] = IGROV1 cell killing – plate reader, dry powder samples, PAX8 inhibitor project, dose response (AID 743043); format: functional, cell-based; settings: IGROV-1
[14] = OV-90 cell viability loss – plate reader, dry powder, SA8, PAX8 inhibitor project, dose response (AID 743149); format: functional, cell-based
[15] = toxicity toward immortalized ovarian surface epithelium – cell-based, plate reader, dry powder samples, cytotoxicity control for PAX8 inhibitor project, dose response (AID 743045); format: functional
[16] = PAX8-dependent cell viability loss – plate reader, dry powder, dose response (AID 743049); format: functional, cell-based
[17] = OVCAR4 cell viability loss – plate reader, dry powder, SA11, cytotoxicity control for PAX8 inhibitor project, dose response (AID 743150); format: functional, cell-based; settings: OVCAR-4
Paired box protein Pax-8 = Paired box protein Pax-8 (Homo sapiens, UniProt Q06710); test: PAX8 transcriptional activity inhibition in RMG-I – RMG-I cells, luciferase, cherry-pick, dose response (AID 687027); format: functional, cell-based;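 further: luciferase reporter driven by Pax8 target thyroperoxidase promoter measured by SteadyGlo luminescence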
Phospholipase D1 = Phospholipase D1 (Homo sapiens, UniProt Q13393); test: PLD1 Cellular Concentration Response Study.; format: functional
Phospholipase D2 = Phospholipase D2 (Homo sapiens, UniProt O14939); test: PLD2 Cellular Concentration Response Study.; format: functional
[18] = M. tuberculosis growth inhibition, HTS (AID 449762); format: functional
[19] = IC50 of insulin release inhibition, rat insulinoma INS-1E line, 5 mM glucose, cell-based (AID 1117331); format: functional
[20] = Potency on glucagon-like peptide 1 release, dose-response in NCI-H716 cell line, half maximal inhibitory concentration (AID 1117344); format: functional, cell-based
[21] = rise of 4N DNA cells, HeLa – IC50, dose response (AID 1117351); format: functional, cell-based
[22] = rise of 2N DNA cells, HeLa – IC50, dose response (AID 1117349); format: functional, cell-based
[23] = glucagon-like peptide-1 release potency in STC-1, concentration-response, half-maximal inhibitory concentration in the STC-1 line (AID 1117345); format: functional, cell-based
[24] = viability inhibitors of stage V gametocytes – luminescence, dose response (AID 1117278); format: functional, cell-based;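 further: gametocytes exposed to compound for 24 hours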
[25] = viability loss in human Jurkat cells – cell-based, luminescence, cytotoxicity control for P. falciparum gametocyte viability project, dose response (AID 1117277); format: functional;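 further: potency reflects loss of cellular ATP meaning fewer viable cells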
[26] = Luminescence-based cell-based high throughput dose response assay to identify activators of the DAF-12 from the parasite S. stercoralis (ssDAF-12).; format: functional
[27] = biological target: T2, Oxysterols receptor LXR-beta (Homo sapiens, UniProt P55055); test: LXR agonists, Gal4 luciferase reporter, dose response, counter-screen for ssDAF-12 agonist project, cell-based, luminescence, HEK293, S. stercoralis campaign (AID 720737); format: functional; settings: read-out: IC50 (the source's name)
T2 sequence (P55055 whole entry): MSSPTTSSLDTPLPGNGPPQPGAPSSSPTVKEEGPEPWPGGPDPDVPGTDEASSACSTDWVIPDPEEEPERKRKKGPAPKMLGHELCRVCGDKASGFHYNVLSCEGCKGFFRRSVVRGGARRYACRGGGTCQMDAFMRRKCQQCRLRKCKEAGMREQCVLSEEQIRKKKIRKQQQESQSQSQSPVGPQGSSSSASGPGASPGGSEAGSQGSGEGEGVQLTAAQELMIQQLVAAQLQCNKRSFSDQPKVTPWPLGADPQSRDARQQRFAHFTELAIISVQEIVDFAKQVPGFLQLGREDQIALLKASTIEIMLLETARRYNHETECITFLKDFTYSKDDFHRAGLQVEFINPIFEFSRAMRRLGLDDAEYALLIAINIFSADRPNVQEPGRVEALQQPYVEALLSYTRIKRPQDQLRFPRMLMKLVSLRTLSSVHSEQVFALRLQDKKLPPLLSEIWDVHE

NAD-dependent protein deacylase sirtuin-5, mitochondrial, sequence (Q9NXA8 whole entry): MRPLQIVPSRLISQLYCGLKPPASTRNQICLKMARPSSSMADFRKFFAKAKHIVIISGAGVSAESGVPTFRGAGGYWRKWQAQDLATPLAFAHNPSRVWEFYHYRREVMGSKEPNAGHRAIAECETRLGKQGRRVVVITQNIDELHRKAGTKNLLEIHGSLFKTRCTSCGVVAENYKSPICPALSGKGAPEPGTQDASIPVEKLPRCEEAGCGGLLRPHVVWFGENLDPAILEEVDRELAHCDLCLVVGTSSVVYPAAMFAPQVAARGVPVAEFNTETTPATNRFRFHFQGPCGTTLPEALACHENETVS
Paired box protein Pax-8, sequence (Q06710 whole entry): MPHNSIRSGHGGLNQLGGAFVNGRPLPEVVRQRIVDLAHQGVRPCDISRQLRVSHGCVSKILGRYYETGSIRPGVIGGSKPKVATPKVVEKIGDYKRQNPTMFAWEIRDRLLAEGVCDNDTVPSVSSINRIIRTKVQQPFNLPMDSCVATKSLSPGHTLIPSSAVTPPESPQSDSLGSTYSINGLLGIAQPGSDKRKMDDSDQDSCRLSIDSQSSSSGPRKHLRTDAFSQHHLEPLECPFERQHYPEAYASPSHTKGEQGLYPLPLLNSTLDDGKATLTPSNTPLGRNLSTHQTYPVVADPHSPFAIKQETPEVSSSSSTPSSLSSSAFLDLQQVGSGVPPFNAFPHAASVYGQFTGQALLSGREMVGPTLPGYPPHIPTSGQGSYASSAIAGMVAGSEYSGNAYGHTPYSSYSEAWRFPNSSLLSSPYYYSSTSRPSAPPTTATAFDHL
Phospholipase D1, sequence (Q13393 whole entry): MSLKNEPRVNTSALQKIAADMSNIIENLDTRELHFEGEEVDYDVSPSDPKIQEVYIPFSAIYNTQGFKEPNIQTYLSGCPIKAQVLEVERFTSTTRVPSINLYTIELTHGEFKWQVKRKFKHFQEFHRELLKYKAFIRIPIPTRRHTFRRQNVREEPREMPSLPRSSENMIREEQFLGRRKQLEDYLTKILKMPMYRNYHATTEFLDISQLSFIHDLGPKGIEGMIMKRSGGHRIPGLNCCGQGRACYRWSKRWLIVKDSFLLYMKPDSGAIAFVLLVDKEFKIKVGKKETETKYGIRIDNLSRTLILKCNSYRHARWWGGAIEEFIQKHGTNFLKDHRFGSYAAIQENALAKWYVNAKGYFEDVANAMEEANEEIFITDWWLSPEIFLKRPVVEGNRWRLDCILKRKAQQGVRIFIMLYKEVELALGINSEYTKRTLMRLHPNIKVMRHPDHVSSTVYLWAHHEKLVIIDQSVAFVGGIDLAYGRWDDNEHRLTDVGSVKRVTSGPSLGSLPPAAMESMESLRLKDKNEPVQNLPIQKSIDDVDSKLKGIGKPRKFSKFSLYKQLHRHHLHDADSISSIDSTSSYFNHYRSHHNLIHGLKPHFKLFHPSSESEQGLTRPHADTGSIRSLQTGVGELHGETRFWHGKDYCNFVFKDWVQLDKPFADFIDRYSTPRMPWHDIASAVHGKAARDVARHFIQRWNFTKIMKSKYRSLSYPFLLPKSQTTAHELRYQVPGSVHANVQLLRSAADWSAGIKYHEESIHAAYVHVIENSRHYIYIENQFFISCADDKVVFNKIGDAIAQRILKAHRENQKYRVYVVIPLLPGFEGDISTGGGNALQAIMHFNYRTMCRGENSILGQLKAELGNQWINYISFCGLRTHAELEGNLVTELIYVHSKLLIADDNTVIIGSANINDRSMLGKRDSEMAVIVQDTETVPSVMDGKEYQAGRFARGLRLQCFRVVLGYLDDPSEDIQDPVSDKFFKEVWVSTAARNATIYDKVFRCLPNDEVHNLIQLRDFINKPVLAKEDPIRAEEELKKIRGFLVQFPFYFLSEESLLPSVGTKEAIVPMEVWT
Phospholipase D2, sequence (O14939 whole entry): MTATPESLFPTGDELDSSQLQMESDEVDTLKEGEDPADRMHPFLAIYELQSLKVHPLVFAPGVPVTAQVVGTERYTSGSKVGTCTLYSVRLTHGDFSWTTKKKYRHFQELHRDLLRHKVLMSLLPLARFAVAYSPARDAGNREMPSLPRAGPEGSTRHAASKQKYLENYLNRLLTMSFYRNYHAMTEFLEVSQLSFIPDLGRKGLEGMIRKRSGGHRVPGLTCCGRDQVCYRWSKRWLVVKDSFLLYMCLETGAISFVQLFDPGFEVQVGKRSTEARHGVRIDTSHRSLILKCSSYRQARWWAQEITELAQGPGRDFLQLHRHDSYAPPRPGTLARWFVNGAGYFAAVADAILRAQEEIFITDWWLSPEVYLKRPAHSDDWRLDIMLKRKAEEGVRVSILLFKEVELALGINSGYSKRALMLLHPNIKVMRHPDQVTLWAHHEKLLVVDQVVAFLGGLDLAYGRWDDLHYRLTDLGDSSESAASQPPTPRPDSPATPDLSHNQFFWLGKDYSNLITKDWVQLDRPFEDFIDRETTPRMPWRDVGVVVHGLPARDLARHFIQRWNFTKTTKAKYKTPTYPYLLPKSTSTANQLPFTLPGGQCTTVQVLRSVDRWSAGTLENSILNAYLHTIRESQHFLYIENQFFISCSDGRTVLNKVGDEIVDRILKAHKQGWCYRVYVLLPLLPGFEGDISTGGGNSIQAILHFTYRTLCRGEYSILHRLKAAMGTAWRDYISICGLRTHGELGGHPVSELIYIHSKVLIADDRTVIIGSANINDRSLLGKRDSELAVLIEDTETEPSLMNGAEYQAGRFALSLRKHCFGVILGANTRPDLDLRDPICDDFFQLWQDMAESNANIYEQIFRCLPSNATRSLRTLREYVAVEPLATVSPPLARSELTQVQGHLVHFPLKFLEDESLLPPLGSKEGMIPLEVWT

For `CC(=O)c1ccc(N=Nc2c(C)[nH]n(-c3ccccc3)c2=O)cc1`, which IC50 [1] is on record?
The IC50 was 4.4 µM (active).

What does the source list for `CN(C)CCNc1nc(-c2ccccc2)nc2ccccc12`?
IC50 [2]: > 80 µM (inactive); IC50 [3]: 58.1 µM (inactive)

With `Cc1ccc(-c2ccccc2[C@H]2[C@@H](C#N)N(C(=O)c3cccc(F)c3)[C@H]2CO)cc1` as the molecule, how does the AC50 [4] read?
The AC50 was 6.78 µM (active).

What about the AC50 [5] of the same molecule?
Its AC50 is 2.52 µM (active).

What about the AC50 [6] of the same molecule?
The AC50 was 1.49 µM (active).

And the AC50 [7]?
Its AC50 is 1.26 µM (active).

For `CN(C)CCN1CCN(C2CN(Cc3cn(Cc4cccc(Cl)c4)nn3)S(=O)(=O)C2)CC1` (stereo not given), which AC50 [8] is on record?
The AC50 was > 30 µM (inactive).

Which results are given for `O=C(CCCN1C(=O)/C(=C\c2cccc(Br)c2)SC1=S)Nc1cccnc1`?
AC50 [9]: 17.9 µM (active); AC50 [10]: 12 µM (active); AC50 [11]: 30.3 µM (active); AC50 [12]: 31.6 µM (active); AC50 [13]: 12.5 µM (active); AC50 [14]: 25.7 µM (active); AC50 [15]: 24.8 µM (active); AC50 [16]: 12.1 µM (active); AC50 [17]: 30.3 µM (active); AC50 (Paired box protein Pax-8): 7.56 µM (active)

With `COc1cccc(C(=O)N2CNC(=O)C23CCN(CCNC(=O)c2ccc4ccccc4c2)CC3)c1` as the molecule, how does the IC50 (Phospholipase D1) read?
The IC50 was 19 µM (active).

And the IC50 (Phospholipase D2)?
The IC50 was 2.05 µM (active).

Which IC50 [18] does the source give for `O=C(COc1cc(O)c2c(=O)c3ccccc3oc2c1)OCc1ccccc1` here?
Its IC50 is > 100 µM (active).

Which results are given for `CCCCCCCCCCCCCCCCCCNC(=O)OC1CCN(C(=O)OC[C@H](COC(=O)N(Cc2cccc[n+]2CC)C(=O)c2ccccc2OC)OC)CC1` [MINOPAFANT]?
IC50 [19]: 21.7 µM (inactive); IC50 [20]: 9.52 µM (inactive); IC50 [21]: > 10 µM (inactive); IC50 [22]: > 10 µM (inactive); IC50 [23]: 13.8 µM (inactive)

With `CC(=O)c1ccc(NC(=O)c2ccc(S(=O)(=O)c3ccccc3)cc2)cc1` as the molecule, how does the IC50 [24] read?
Its IC50 is > 109 µM (inactive).

And the IC50 [25]?
The IC50 was > 83.3 µM (inactive).

With `Cc1ccc([N+](=O)[O-])c2c1C(N1CC(C)OC(C)C1)C(C)(C)O2` (stereo not given) as the molecule, how does the IC50 [26] read?
The IC50 was > 67.6 µM (inactive).

What about the EC50 [27] of the same molecule?
The EC50 was > 67.6 µM (inactive).

— ChEMBL document CHEMBL1201862, “PubChem BioAssay data set” (2004)
